Read-outs that look alike come from different tables or passages of the source. Ends that are not written are not given here. Peptide text beside a SMILES is read from it.
Assays:
[1] = system: F. graminearum PH-1
[2] = system: F. graminearum hyphae; format: cell-based, Fusarium graminearum
[3] = system: Aspergillus flavus; format: cell-based
[4] = system: F. graminearum hyphae; format: cell-based, Fusarium graminearum; remark: listed apart in the source
[5] = F. graminearum PH-1, SFM without calcium
[6] = PH-1, all concentrations tested
[7] = PH-1 conidia, microscopic observation after overnight (16 hours) incubation

## NCC(=O)N1CCC[C@H]1C(=O)N[C@@H](CS)C(=O)N[C@@H](Cc1ccccc1)C(=O)N[C@@H](CO)C(=O)NCC(=O)N[C@@H](CS)C(=O)O [ALP1] (H-GPCFSGC-OH; N-terminus and C-terminus assumed)
[1]; PH-1
  antifungal activity at 48 µM (in words): no antifungal activity
[1]; [5]
  IC100: amount of protein required to inhibit F. graminearum conidial germination completely: >48 µM
[1]; [6]
  antifungal activity (in words): totally inactive

## C[C@H](NC(=O)[C@H](CS)NC(=O)[C@@H]1CCCN1C(=O)CN)C(=O)N[C@@H](CO)C(=O)N[C@@H](CC(=O)O)C(=O)N[C@@H](Cc1c[nH]cn1)C(=O)N[C@@H](CC(N)=O)C(=O)N[C@@H](CS)C(=O)O [ALP4] (H-GPCASDHNC-OH; N-terminus and C-terminus assumed)
[1]; PH-1
  antifungal activity at 48 µM (in words): no antifungal activity
[1]; [5]
  IC100: amount of protein required to inhibit F. graminearum conidial germination completely: >48 µM
[1]; [6]
  antifungal activity (in words): totally inactive

## C[C@@H](O)[C@H](NC(=O)[C@H](CS)NC(=O)[C@H](Cc1c[nH]c2ccccc12)NC(=O)[C@H](CS)NC(=O)[C@H](CCCNC(=N)N)NC(=O)[C@H](Cc1ccccc1)NC(=O)[C@H](CC(=O)O)NC(=O)[C@H](CC(=O)O)NC(=O)[C@H](CCCNC(=N)N)NC(=O)[C@H](CS)NC(=O)[C@H](CCCNC(=N)N)NC(=O)CN)C(=O)N[C@@H](CCCCN)C(=O)N[C@@H](CCCNC(=N)N)C(=O)N[C@@H](CS)C(=O)O [GMA1-C] (H-GRCRDDFRCWCTKRC-OH; N-terminus and C-terminus assumed)
[1]; [5]
  IC100: amount of protein required to inhibit F. graminearum conidial germination completely: 24 µM
[1]; PH-1, microscopy after 16 hours
  hyperbranching of fungal hyphae: did not cause hyperbranching
[1]; PH-1 conidia
  concentration giving complete inhibition of conidial germination (IC100): 24 µM
[1]; [7]
  lowest concentration at which antifungal activity / growth inhibition was evident: 6 µM
[2]; 24 µM
  SG uptake at 24 µM relative to that induced by GMA4-C: twice

## N=C(N)NCCC[C@H](NC(=O)[C@H](Cc1ccccc1)NC(=O)[C@H](CC(=O)O)NC(=O)[C@H](CC(=O)O)NC(=O)[C@@H](N)CCCNC(=N)N)C(=O)O [GMA1-L] (H-RDDFR-OH; N-terminus and C-terminus assumed)
[1]
  IC100: amount of protein required to inhibit F. graminearum conidial germination completely: >96 µM
  antifungal activity (in words): no antifungal activity
  antifungal activity at 96 µM (in words): inactive
[1]; PH-1, 36 h
  IC50: > 96 µM
[2]
  SYTOX Green uptake (in words): failed to induce any uptake

## N=C(N)NCCC[C@H](NC(=O)CN)C(=O)N[C@@H](CS)C(=O)N[C@@H](CCCNC(=N)N)C(=O)N[C@@H](CC(=O)O)C(=O)N[C@@H](CC(=O)O)C(=O)N[C@@H](Cc1ccccc1)C(=O)N[C@@H](CCCNC(=N)N)C(=O)N[C@@H](CS)C(=O)O [GMA1] (H-GRCRDDFRC-OH; N-terminus and C-terminus assumed)
[1]; PH-1
  antifungal activity at 48 µM (in words): no antifungal activity
  antifungal activity at 96 µM (in words): failed to show any antifungal activity
[1]; [5]
  IC100: amount of protein required to inhibit F. graminearum conidial germination completely: >192 µM
[1]; [6]
  antifungal activity (in words): inactive

## C[C@@H](O)[C@H](NC(=O)[C@H](CS)NC(=O)[C@H](Cc1ccccc1)NC(=O)[C@H](CS)NC(=O)[C@H](CCCNC(=N)N)NC(=O)[C@H](CCCNC(=N)N)NC(=O)[C@H](CCCNC(=N)N)NC(=O)[C@H](Cc1ccccc1)NC(=O)CNC(=O)[C@H](CCCNC(=N)N)NC(=O)[C@H](CS)NC(=O)[C@H](CCCNC(=N)N)NC(=O)CN)C(=O)N[C@H](C(=O)N[C@@H](Cc1c[nH]cn1)C(=O)N[C@@H](CS)C(=O)O)[C@@H](C)O [GMA4-C] (H-GRCRGFRRRCFCTTHC-OH; N-terminus and C-terminus assumed)
[1]
  IC100: amount of protein required to inhibit F. graminearum conidial germination completely: 6 µM
  concentration giving complete inhibition of conidial germination (IC100): 6 µM
  lowest concentration at which antifungal activity / growth inhibition was evident: 1.5 µM
[1]; PH-1, 16 h, 3 µM
  fungal growth inhibition at 3 µM: 70±9%
[1]; PH-1, 36 h
  IC50: 3 µM

## C[C@H](NC(=O)CNC(=O)[C@@H](N)CCCNC(=N)N)C(=O)N[C@@H](CCCNC(=N)N)C(=O)N[C@@H](CCCNC(=N)N)C(=O)N[C@@H](CCCNC(=N)N)C(=O)O [GMA4-L1] (H-RGARRR-OH; N-terminus and C-terminus assumed)
[1]
  IC100: amount of protein required to inhibit F. graminearum conidial germination completely: >96 µM
  growth inhibition at 24 µM, 16 hours (in words): mild growth inhibition
[1]; PH-1, 16 h
  growth inhibition at 96 µM: 30–40%
[1]; PH-1, 36 h
  IC50: > 96 µM
[2]; 24 µM
  SYTOX Green uptake at 24 µM: > 100 fluorescence units

## C[C@H](NC(=O)[C@H](Cc1ccccc1)NC(=O)CNC(=O)[C@@H](N)CCCNC(=N)N)C(=O)N[C@@H](CCCNC(=N)N)C(=O)N[C@@H](CCCNC(=N)N)C(=O)O [GMA4-L2] (H-RGFARR-OH; N-terminus and C-terminus assumed)
[1]
  IC100: amount of protein required to inhibit F. graminearum conidial germination completely: >96 µM
  growth inhibition at 24 µM, 16 hours (in words): mild growth inhibition
[1]; PH-1, 16 h
  growth inhibition at 96 µM: 30–40%
[1]; PH-1, 36 h
  IC50: > 96 µM
[2]
  SYTOX Green uptake (in words): failed to induce any uptake

## N=C(N)NCCC[C@H](NC(=O)[C@H](CCCNC(=N)N)NC(=O)[C@H](CCCNC(=N)N)NC(=O)[C@H](Cc1ccccc1)NC(=O)CNC(=O)[C@@H](N)CCCNC(=N)N)C(=O)O [GMA4-L] (H-RGFRRR-OH)
[1]; PH-1, 16 h, 12 µM
  fungal growth inhibition at 12 µM: 100%
[1]; PH-1, 36 h
  IC50: 4 µM
[1]; PH-1, 36 h, 6 µM
  fungal growth inhibition at 6 µM: 91±7%

## N=C(N)NCCC[C@H](NC(=O)CN)C(=O)N[C@@H](CS)C(=O)N[C@@H](CCCNC(=N)N)C(=O)NCC(=O)N[C@@H](Cc1ccccc1)C(=O)N[C@@H](CCCNC(=N)N)C(=O)N[C@@H](CCCNC(=N)N)C(=O)N[C@@H](CCCNC(=N)N)C(=O)N[C@@H](CS)C(=O)O [GMA4] (H-GRCRGFRRRC-OH; N-terminus and C-terminus assumed)
[1]; PH-1 conidia
  concentration giving complete inhibition of conidial germination (IC100): 12 µM
[1]; [7]
  lowest concentration at which antifungal activity / growth inhibition was evident: 6 µM

## RTCESQSHKFKGPCASDHNCASVCQTERFSGGRCRGFRRRCFCTTHC (also: bicyclic or more (positions not given here)) [MtDef4]
[3]
  growth inhibition of A. flavus at 48 µM: approximately 75%
[4]
  hyphal morphology compared with untreated control hyphae: no difference
[1]
  IC100: amount of protein required to inhibit F. graminearum conidial germination completely: 1.5 to 2.5 µM
  concentration giving complete inhibition of conidial germination (IC100): 1.5 µM
[1]; 1.5 µM
  fungal growth inhibition at 1.5 µM: 100%
[1]; read-out: IC50: amount of protein required for inhibiting 50% growth of F. graminearum
  IC50: 0.75 to 1 µM
[2]
  SYTOX Green uptake (in words): increased in a concentration dependant manner
  time to start of SG uptake after addition of defensin: ≤ 5 min
[2]; 6 µM, 5 hours
  maximum SYTOX Green fluorescence at 6 µM, 5 hours: 702±10 units

From publication PMC3076432 (PLoS ONE, 2011)
